Measured values as given in US4141993A, “Compounds of diphenylcyclopentylamine type and methods for their preparation” (priority 1971, dated 1979).
Read-outs that look alike come from different tables or passages of the source.

Legend:
5-HTP response = 5-HTP response potentiation test; format: in vivo, mice; conditions: 0 = without effect; for 5-HTP potentiation, 25 mg/kg i.p., 1h: drug 1 h before 5-HTP; for 5-HTP potentiation, 25 mg/kg i.p., 4h: drug 4 h before 5-HTP
Experimental: 1. 5-HTP response potentiation test
Inhibition of the uptake of 5-HT potentiates the effects of administered 5-hydroxytryptophane (5-HTP) probably by increasing the amount of 5-HT at the receptor.
These small movements are quantitatively measured in an activity box, type Animex, which can distinguish between small and gross movements. The activity is measured during 20 minutes and only in the case the animals have a fullblown syndrome.

mice [1] = test: Motor activity in mice (exploratory activity, locomotion cage); format: in vivo; conditions: Mus musculus, ip, 1 h, read-out: Motor activity ID50
Experimental: The exploratory activity of mice was recorded in a locomotion cage in which the movements were counted each time the animals cross-circuit an electrical current in the bottom plate. The activity was recorded for ten minutes one hour after the administration of the drug. The animals were tested individually. Groups of six mice were used and the mice were only used once. The activity was expressed in percent of the activity of control groups ran simultaneously.

uptake of tritiated 5-HT [2] = test: Inhibition of the uptake of tritiated 5-HT in vivo (drug i.p., uptake in midbrain slices); design: species or system mice; conditions: for ED50: Mus musculus, ip, 0.5 h, read-out: Inhibition (50 %) of uptake in vivo, 5-HT (ED50), i.p., half an hour before the animals were killed
Experimental: (§1) 1. Inhibition of the uptake of tritiated 5-HT in vitro and in vivo
(§2) The drugs were administered intraperitoneally half an hour before the animals were killed and the midbrain was taken out and sliced and incubated in a mixture consisting of, per 100 mg of brain slices, 0.2 μmole of ^3 H-5-HT and 1 μmole of glucose in 2 ml of Krebs-Henseleit buffer, pH 7.4. The incubation time was 5 minutes with 5 minutes of preincubation before ^3 H-5-HT was added. The radioactive ^3 H-5-HT taken up in the slices was extracted with ethanol and the amount was determined by liquid scintillation. […] Active uptake is defined as that part of the radioactive uptake which is inhibited by a high concentration of cocaine. All doses were given at least to four animals.

[3] = tested on: uptake of tritiated noradrenaline; test: Inhibition of the uptake of tritiated noradrenaline in vivo (drug i.p., uptake in cortex slices); conditions: for ED50: ip, 1 h, read-out: Inhibition (50 %) of uptake in vivo, NA (ED50), i.p., half or one hour before the animals were killed; for selectivity towards noradrenaline: uptake inhibition, compared with imipramine
Experimental: (§3) 2. Inhibition of the uptake of tritiated noradrenaline in vitro and in vivo
(§4) The animals were killed half or one hour after the administration of the drugs in vivo (i.p.). The slices, made from cortex, were preincubated for five minutes and incubated with 0.1 μmole per ml of ^3 H-noradrenaline for further five minutes. The incubation mixture consisted of 0.2 μmole of ^3 H-NA and the brain slices in 2 ml of Krebs-Henseleits buffer, pH 7.4. The radioactive ^3 H-NA taken up in the slices was extracted with ethanol and the amount was determined by liquid scintillation. The dose producing 50 percent decrease of the active uptake (ED50) was determined graphically from dose response curves. At least four animals were used at each dose level.

Acute toxicity in mice = conditions: mouse, in vivo, iv, within 24 hours
Experimental: (§5) Acute toxicity, behavior and anticholinergic effect (mydriasis) in mice
(§6) The compounds were given by intravenous route to 3 mice. […] Seizures, gait, sedation and grip strength were recorded. […] PD200 is the dose which increases the pupil by 200%.

uptake of tritiated 5-HT [4] = test: Inhibition of the uptake of tritiated 5-HT in vitro (midbrain slices); format: biochemical, mice; conditions: for Inhibition (50 %) of uptake in vitro, 5-HT: 5-hydroxytryptamine 10^-7 M
Experimental: as §1
as §2, with “The drugs were administered intraperitoneally half an hour before the animals were killed and the midbrain was taken” left out, “0.2 μmole of ^3 H-5-HT and 1 μmole of glucose in” left out

Dopa response = Dopa response potentiation test; format: in vivo, mice; conditions: for L-DOPA potentiation, 10 mg/kg i.p., 1h / L-DOPA potentiation, 10 mg/kg i.p., 4h: score, pargyline pretreated; for L-DOPA potentiation, 10 mg/kg i.p., 1h: drug 1 h before 1-Dopa 100 mg/kg i.p.; for L-DOPA potentiation, 10 mg/kg i.p., 4h: drug 4 h before 1-Dopa 100 mg/kg i.p.; for L-DOPA potentiation, entry given as a bound (no score): printed in the 1h column, head 10 mg/kg i.p.
Experimental: Mice in groups of 3 are pretreated with Pargyline® 40 mg/kg p.o. about 10-16 hours before the test. […] 1-Dopa gives a characteristic syndrome which is scored as follows:
1. piloerection, slight salivation, slight increased motor activity
2. piloerection, salivation, marked increased motor activity and irritability
3. piloerection, profuse salivation, marked irritability and reactivity, jumping, squeaking, fighting.
The control groups are Amitriptyline (20 mg/kg i.p. 4 hours before 1-Dopa) and saline (1 hour before 1-Dopa). […] The test drugs were all tested at 10 mg/kg i.p.

mice [5] = test: Anticholinergic effect (mydriasis) in mice; format: in vivo
Experimental: as §5, §6

[6] = tested on: uptake of tritiated noradrenaline; test: Inhibition of the uptake of tritiated noradrenaline in vitro (cortex slices); format: biochemical; conditions: for Inhibition (50 %) of uptake in vitro, NA: dl-noradrenaline 10^-7 M
Experimental: as §3
as §4, with “The method is found in European Journal of Pharmacology 2 (1967), 181- 186. The animals” for “The animals”
Inhibition (50 %) of uptake
^2) Na = dl-noradrenaline 10^-7 M

uptake of tritiated 5-HT [7] = test: Inhibition of the uptake of tritiated 5-HT in vivo (drug i.p., uptake in midbrain slices); design: species or system mice
[8] = i.v., 10 minutes after injection, dose which increases the pupil by 200%
[9] = i.p., one hour after administration

SMILES | 5-HTP potentiation, 25 mg/kg i.p., 1h (5-HTP response) | ED50 (uptake of tritiated 5-HT [2]) [mg/kg] | ED50 [3] [mg/kg] | LD50 at 24 h (Acute toxicity in mice) [mg/kg] | Inhibition (50 %) of uptake in vitro, 5-HT (uptake of tritiated 5-HT [4]) [µg/mL] | L-DOPA potentiation, 10 mg/kg i.p., 1h (Dopa response) | L-DOPA potentiation, 10 mg/kg i.p., 4h (Dopa response) | Inhibition (50 %) of uptake in vitro, NA [6] [µg/mL] | ED50 (mice [1]; [9]) [mg/kg] | inhibition of uptake of noradrenaline in vivo, in words [3] | inhibition of uptake of 5-hydroxytryptamine in vitro, in words (uptake of tritiated 5-HT [4]) | Mydriasis PD200 (mice [5]; mouse, in vivo, iv, 10 min) [mg/kg] | inhibition of uptake of noradrenaline in vitro, in words [6] | other results
CN(C)CC1CCC(c2ccccc2)(c2ccccc2)C1 (stereo not drawn) [PUE 117, 1-dimethylaminomethyl-3,3-diphenylcyclopentane] | 0 | > 40 | 17 | 30 | 3.6 | 3 | 1.5 | 2.3 | – | – | – | – | – | ED50 (mice [1]): > 50 mg/kg; Mydriasis PD200 (mice [5]; [8]): < 1 mg/kg
CNCC1CCC(c2ccccc2)(c2ccccc2)C1 (stereo not drawn) [PUE 122, 1-methylaminomethyl-3,3-diphenylcyclopentane] | 0 | > 40 | 5.5 | 15 | 4.2 | 3 | 3 | 0.05 | > 50 | Strong inhibition of the uptake of noradrenaline only | considerably weaker effect | > 12.5 | strongly effective | –
CNC1CCC(c2ccccc2)(c2ccc(Cl)cc2)C1 (stereo not drawn) [PUN 125, 1-methylamino-3-(4-chlorophenyl)-3-phenylcyclopentane] | 0 | > 40 | > 40 | – | 2 | 1 | 1 | 1 | – | – | – | – | – | –
CN(C)C1CCC(c2ccccc2)(c2ccc(Cl)cc2)C1 (stereo not drawn) [PUN 123, 1-dimethylamino-3-(4-chlorophenyl)-3-phenylcyclopentane] | 25 | 40 | 30 | 30 | 1 | – | 3 | 1 | > 50 | strong inhibition | potent inhibitors | < 10 | potent inhibitors | 5-HTP potentiation, 25 mg/kg i.p., 4h (5-HTP response): 0; inhibition of uptake of 5-hydroxytryptamine in vivo, in words (uptake of tritiated 5-HT [2]): strong inhibition; selectivity towards noradrenaline [3]: substantially nonselective ability towards noradrenaline
CN(C)C1CCC(c2ccccc2)(c2ccccc2)C1 (stereo not drawn) [PUB 112, 1-dimethylamino-3,3-diphenylcyclopentane] | 25 | > 40 | 25 | 18 | 0.7 | 2.5 | 2 | 0.4 | – | – | potent inhibitors | – | potent inhibitors | ED50 (mice [1]): > 50 mg/kg; Mydriasis PD200 (mice [5]; [8]): < 1 mg/kg
COc1ccc(C2(c3ccccc3)CCC(N)C2)cc1 (stereo not drawn) [PUT 104, 1-amino-3-(4-methoxyphenyl)-3-phenylcyclopentane] | > 25 | > 40 | > 40 | > 40 | 0.5 | – | – | 1 | – | – | potent inhibitors | > 40 | potent inhibitors | L-DOPA potentiation, entry given as a bound (no score) (Dopa response): > 10
NC1CCC(c2ccc(Cl)cc2)(c2ccc(Cl)cc2)C1 (stereo not drawn) [PUT 108, 1-amino-3,3-di(4-chlorophenyl)cyclopentane] | > 25 | > 40 | > 40 | 23 | 1 | – | – | 2.5 | > 50 | – | – | > 23 | – | L-DOPA potentiation, entry given as a bound (no score) (Dopa response): > 10
NC1CCC(c2ccccc2)(c2ccc(Cl)cc2)C1 (stereo not drawn) [PUN 122, 1-amino-3-(4-chlorophenyl)-3-phenylcyclopentane] | 25 | 20 | 30 | 15 | 0.7 | 3 | 3 | 0.3 | > 50 | strong inhibition | potent inhibitors | > 12.5 | potent inhibitors | inhibition of uptake of 5-hydroxytryptamine in vivo, in words (uptake of tritiated 5-HT [2]): strong inhibition; selectivity towards noradrenaline [3]: substantially nonselective ability towards noradrenaline; uptake inhibition still pronounced after (uptake of tritiated 5-HT [7]): 16 h; time of maximal uptake inhibition (uptake of tritiated 5-HT [7]; uptake inhibition increases with time): four; duration of inhibition of the uptake mechanism compared with imipramine (uptake of tritiated 5-HT [7]; uptake of 5-HT and noradrenaline): much longer time than does the reference substance imipramine
CN(C)CCC=C1c2ccccc2CCc2ccccc21 [Amitriptyline, reference compound] | – | – | – | – | – | – | – | – | – | – | – | – | – | Dopa response score of control (Dopa response; 20 mg/kg i.p. 4 hours before 1-Dopa): three
NCC1CCC(c2ccccc2)(c2ccccc2)C1 (stereo not drawn) [PUE 119, 1-aminomethyl-3,3-diphenylcyclopentane] | 0 | > 40 | – | 22 | 0.34 | 1.5 | 1.5 | 0.025 | – | Strong inhibition of the uptake of noradrenaline only | considerably weaker effect | – | strongly effective | 5-HTP potentiation, 25 mg/kg i.p., 4h (5-HTP response): 0; ED50 (mice [1]): > 50 mg/kg; Mydriasis PD200 (mice [5]; [8]): 2.5 mg/kg
CNC1CCC(c2ccccc2)(c2ccccc2)C1 (stereo not drawn) [PUB 107, 1-methylamino-3,3-diphenylcyclopentane] | 0 | > 40 | 20 | 30 | 1 | 2 | 2 | 0.7 | > 50 | – | potent inhibitors | 15 | potent inhibitors | –
